Source: PubChem BioAssay AID1963972 (Molecular Pharmacology Branch, DTP, NCI, 2024)
Each block holds one compound with its values, some of them ahead of it.

Test system: 945468-187-T-J2-PDC spheroids viability
Assay: Anticancer human tumor 945468-187-T-J2-PDC patient-derived rectal carcinoma cell line growth inhibition [PI3K]
Conditions: spheroids with HUVEC and MSC; for IC50: curve of first compound; for viability, T/C: stronger effect = lower value
In short: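 Multi-cell spheroids combine tumor cells with HUVEC and human MSCs, treated with targeted agents alone or with inavolisib, alpelisib, duvelisib or copanlisib. Concentrations fall in half-log steps from at or near clinical Cmax, or from 10 microM where Cmax is unknown; viability read-out.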

[1] = second compound 0.00316 µM, first compound 0.0316 µM
[2] = second compound 0.00316 µM, first compound 0.1 µM
[3] = second compound 0.00316 µM, first compound 0.316 µM
[4] = second compound 0.00316 µM, first compound 1 µM
[5] = second compound 0.00316 µM, first compound 3.16 µM
[6] = second compound 0.00316 µM, first compound 10 µM
[7] = second compound 0.01 µM, first compound 0.0316 µM
[8] = second compound 0.01 µM, first compound 0.1 µM
[9] = second compound 0.01 µM, first compound 0.316 µM
[10] = second compound 0.01 µM, first compound 1 µM
[11] = second compound 0.01 µM, first compound 3.16 µM
[12] = second compound 0.01 µM, first compound 10 µM
[13] = second compound 0.0316 µM, first compound 0.0316 µM
[14] = second compound 0.0316 µM, first compound 0.1 µM
[15] = second compound 0.0316 µM, first compound 0.316 µM
[16] = second compound 0.0316 µM, first compound 1 µM
[17] = second compound 0.0316 µM, first compound 3.16 µM
[18] = second compound 0.0316 µM, first compound 10 µM
[19] = second compound 0.1 µM, first compound 0.0316 µM
[20] = second compound 0.1 µM, first compound 0.1 µM
[21] = second compound 0.1 µM, first compound 0.316 µM
[22] = second compound 0.1 µM, first compound 1 µM
[23] = second compound 0.1 µM, first compound 3.16 µM
[24] = second compound 0.1 µM, first compound 10 µM
[25] = second compound 0.316 µM, first compound 0.0316 µM
[26] = second compound 0.316 µM, first compound 0.1 µM
[27] = second compound 0.316 µM, first compound 0.316 µM
[28] = second compound 0.316 µM, first compound 1 µM
[29] = second compound 0.316 µM, first compound 3.16 µM
[30] = second compound 0.316 µM, first compound 10 µM
[31] = second compound 1 µM, first compound 0.0316 µM
[32] = second compound 1 µM, first compound 0.1 µM
[33] = second compound 1 µM, first compound 0.316 µM
[34] = second compound 1 µM, first compound 1 µM
[35] = second compound 1 µM, first compound 3.16 µM
[36] = second compound 1 µM, first compound 10 µM
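Further: spheroids exposed to compounds for seven days before reading.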

- IC50 (second compound 0.00316 µM): > 10000 nM
- IC50 (second compound 0.01 µM): > 10000 nM
- IC50 (second compound 0.0316 µM): > 10000 nM
- IC50 (second compound 0.1 µM): > 10000 nM
- IC50 (second compound 0.316 µM): < 31.6 nM
- IC50 (second compound 1 µM): < 31.6 nM
Structure (SMILES): C#Cc1c(F)ccc2cc(O)cc(-c3ncc4c(N5CC6CCC(C5)N6)nc(OCC56CCCN5CC(F)C6)nc4c3F)c12 (stereo not drawn) + COc1c(OCCCN2CCOCC2)ccc2c3n(c(=NC(=O)c4cnc(N)nc4)nc12)CCN3
- viability, T/C [1]: 124%
- viability, T/C [2]: 91.1%
- viability, T/C [3]: 121%
- viability, T/C [4]: 102%
- viability, T/C [5]: 121%
- viability, T/C [6]: 94.1%
- viability, T/C [7]: 107%
- viability, T/C [8]: 98.8%
- viability, T/C [9]: 104%
- viability, T/C [10]: 88.1%
- viability, T/C [11]: 81.1%
- viability, T/C [12]: 97%
- viability, T/C [13]: 79%
- viability, T/C [14]: 114%
- viability, T/C [15]: 94.2%
- viability, T/C [16]: 110%
- viability, T/C [17]: 99%
- viability, T/C [18]: 104%
- viability, T/C [19]: 70.2%
- viability, T/C [20]: 95%
- viability, T/C [21]: 79.2%
- viability, T/C [22]: 81.4%
- viability, T/C [23]: 83.4%
- viability, T/C [24]: 59.8%
- viability, T/C [25]: 44.6%
- viability, T/C [26]: 41.3%
- viability, T/C [27]: 45%
- viability, T/C [28]: 41.8%
- viability, T/C [29]: 33.1%
- viability, T/C [30]: 26.9%
- viability, T/C [31]: 18.7%
- viability, T/C [32]: 17.3%
- viability, T/C [33]: 18.1%
- viability, T/C [34]: 19.2%
- viability, T/C [35]: 19.1%
- viability, T/C [36]: 14.4%

- IC50 (second compound 0.00316 µM): > 10000 nM
- IC50 (second compound 0.01 µM): > 10000 nM
- IC50 (second compound 0.0316 µM): > 10000 nM
- IC50 (second compound 0.1 µM): > 10000 nM
- IC50 (second compound 0.316 µM): < 31.6 nM
- IC50 (second compound 1 µM): < 31.6 nM
Structure (SMILES): C=CC(=O)N1CCN(c2nc(=O)n(-c3c(C)ccnc3C(C)C)c3nc(-c4c(O)cccc4F)c(F)cc23)C(C)C1 (stereo not drawn) + COc1c(OCCCN2CCOCC2)ccc2c3n(c(=NC(=O)c4cnc(N)nc4)nc12)CCN3
- viability, T/C [1]: 92.6%
- viability, T/C [2]: 99.4%
- viability, T/C [3]: 107%
- viability, T/C [4]: 98.4%
- viability, T/C [5]: 103%
- viability, T/C [6]: 120%
- viability, T/C [7]: 94.6%
- viability, T/C [8]: 100%
- viability, T/C [9]: 82.8%
- viability, T/C [10]: 96.1%
- viability, T/C [11]: 98%
- viability, T/C [12]: 117%
- viability, T/C [13]: 90.6%
- viability, T/C [14]: 90.1%
- viability, T/C [15]: 108%
- viability, T/C [16]: 108%
- viability, T/C [17]: 94.7%
- viability, T/C [18]: 97.3%
- viability, T/C [19]: 81.4%
- viability, T/C [20]: 98.1%
- viability, T/C [21]: 73.1%
- viability, T/C [22]: 85.6%
- viability, T/C [23]: 85%
- viability, T/C [24]: 93.2%
- viability, T/C [25]: 36.9%
- viability, T/C [26]: 37.9%
- viability, T/C [27]: 51.2%
- viability, T/C [28]: 46.7%
- viability, T/C [29]: 37.2%
- viability, T/C [30]: 48.5%
- viability, T/C [31]: 17.9%
- viability, T/C [32]: 21.1%
- viability, T/C [33]: 21.7%
- viability, T/C [34]: 20.7%
- viability, T/C [35]: 22.7%
- viability, T/C [36]: 20.9%

- IC50 (second compound 0.00316 µM): > 10000 nM
- IC50 (second compound 0.01 µM): > 10000 nM
- IC50 (second compound 0.0316 µM): > 10000 nM
- IC50 (second compound 0.1 µM): > 10000 nM
- IC50 (second compound 0.316 µM): < 31.6 nM
- IC50 (second compound 1 µM): < 31.6 nM
Structure (SMILES): CC(Cn1ccc(-c2ccc(C#N)c(Cl)c2)n1)NC(=O)c1cc(C(C)O)[nH]n1 (stereo not drawn) + COc1c(OCCCN2CCOCC2)ccc2c3n(c(=NC(=O)c4cnc(N)nc4)nc12)CCN3
- viability, T/C [1]: 85.6%
- viability, T/C [2]: 112%
- viability, T/C [3]: 124%
- viability, T/C [4]: 94.6%
- viability, T/C [5]: 92.2%
- viability, T/C [6]: 114%
- viability, T/C [7]: 91.3%
- viability, T/C [8]: 104%
- viability, T/C [9]: 117%
- viability, T/C [10]: 115%
- viability, T/C [11]: 105%
- viability, T/C [12]: 108%
- viability, T/C [13]: 90.7%
- viability, T/C [14]: 114%
- viability, T/C [15]: 113%
- viability, T/C [16]: 101%
- viability, T/C [17]: 108%
- viability, T/C [18]: 89.3%
- viability, T/C [19]: 79.4%
- viability, T/C [20]: 95%
- viability, T/C [21]: 81.5%
- viability, T/C [22]: 94.3%
- viability, T/C [23]: 84.8%
- viability, T/C [24]: 87%
- viability, T/C [25]: 40.8%
- viability, T/C [26]: 33.2%
- viability, T/C [27]: 49%
- viability, T/C [28]: 39.2%
- viability, T/C [29]: 42.5%
- viability, T/C [30]: 48.1%
- viability, T/C [31]: 21.3%
- viability, T/C [32]: 23.5%
- viability, T/C [33]: 22.9%
- viability, T/C [34]: 22%
- viability, T/C [35]: 24.3%
- viability, T/C [36]: 25.2%

- IC50 (second compound 0.00316 µM): 663 nM
- IC50 (second compound 0.01 µM): 871 nM
- IC50 (second compound 0.0316 µM): 745 nM
- IC50 (second compound 0.1 µM): 663 nM
- IC50 (second compound 0.316 µM): < 31.6 nM
- IC50 (second compound 1 µM): < 31.6 nM
Structure (SMILES): CC1(C)CCC(Nc2ncc(C(F)(F)F)c(-c3c[nH]c4c(P(C)(C)=O)c(C#N)ccc34)n2)CN1 (stereo not drawn) + COc1c(OCCCN2CCOCC2)ccc2c3n(c(=NC(=O)c4cnc(N)nc4)nc12)CCN3
- viability, T/C [1]: 91%
- viability, T/C [2]: 86.8%
- viability, T/C [3]: 66.3%
- viability, T/C [4]: 40.5%
- viability, T/C [5]: 32.6%
- viability, T/C [6]: 27.6%
- viability, T/C [7]: 92.9%
- viability, T/C [8]: 89.8%
- viability, T/C [9]: 76%
- viability, T/C [10]: 46.8%
- viability, T/C [11]: 30.2%
- viability, T/C [12]: 28.7%
- viability, T/C [13]: 110%
- viability, T/C [14]: 85%
- viability, T/C [15]: 69.2%
- viability, T/C [16]: 38.9%
- viability, T/C [17]: 37.7%
- viability, T/C [18]: 25.9%
- viability, T/C [19]: 86.5%
- viability, T/C [20]: 88.4%
- viability, T/C [21]: 62.8%
- viability, T/C [22]: 43.5%
- viability, T/C [23]: 37.3%
- viability, T/C [24]: 31.8%
- viability, T/C [25]: 42%
- viability, T/C [26]: 44.3%
- viability, T/C [27]: 40.2%
- viability, T/C [28]: 33.8%
- viability, T/C [29]: 31.2%
- viability, T/C [30]: 17.2%
- viability, T/C [31]: 21.3%
- viability, T/C [32]: 19.5%
- viability, T/C [33]: 22.8%
- viability, T/C [34]: 19%
- viability, T/C [35]: 17.7%
- viability, T/C [36]: 10.2%
